Laboratory results published in patent publication US20240025883A1, “PYRIMIDIN-2-YL SULFONAMIDE DERIVATIVES” (Hoffmann-La Roche Inc., priority 2021, published 2024).

Molecular target: human GPR17 short isoform (Homo sapiens (Human), UniProt Q13304)
Experiment: GPR17 cAMP assay (hGPR17 cAMP, antagonist mode against EC80 of MDL29,951)
Type: cell-based
Conditions: CHO-K1 cells stably expressing human GPR17 short isoform; EC80 of agonist MDL29,951; forskolin 15 μM
Procedure: GPR17 cAMP Assay Protocol:
CHO-K1 cells stably expressing vector containing untagged human GPR17 short isoform (Roche) were cultured at 37° C./5% CO2 in DMEM (Dulbecco's Modified Eagle Medium):F-12 (1:1) supplemented with 10% foetal bovine serum and 400 μg/ml Geneticin.
Changes in intracellular cyclic adenosine monophosphate (cAMP) levels were quantified using the Nano-TRF Detection Assay kit (Roche Diagnostics, Cat. No. 05214386001). This assay allows for direct cAMP quantification in a homogeneous solution, cAMP is detected based on time-resolved fluorescence energy transfer (TR-FRET) and competitive binding of ruthenylated cAMP and endogenous cAMP to an anti-cAMP monoclonal antibody labeled with AlexaFluor-700. The Ruthenium complex serves as the FRET donor and transfers energy to AlexaFluor-700. The FRET signal is inversely proportional to the cAMP concentration.
CHO-GPR17S cells were detached with Accutase and resuspended in assay buffer consisting of Hank's Balanced Salt Solution (HBSS), 10 mM HEPES (4-(2-hydroxyethyl) piperazine-1-ethanesulfonic acid solution) and 0.1% bovine serum albumin (pH 7.4). The cells were seeded in black 384-well plates (Corning) at a density of 10,000 cells/20 μl assay buffer until the addition of compounds.
Test antagonist compounds were serially diluted in dimethyl sulfoxide (DMSO) and spotted in 384-well plates. The compounds were then diluted in HBSS buffer supplemented with an EC80 concentration of MDL29,951 (3-(2-Carboxy-4,6-dichloroindol-3-yl)propionic acid) (GPR17 agonist) plus 3-Isobutyl-1-methylxanthine (IBMX) (0.5 mM final concentration) and added to the cells at room temperature. Forskolin (15 μM final concentration) was added 5 minutes after the test compounds and the cells were incubated at room temperature for 30 minutes. The assay was stopped by adding cAMP detection mix (containing detergents for cell lysis) for 90 minutes at room temperature.
Cellular cAMP was measured using a Paradigm reader (Molecular Devices). The raw data was used to calculate the FRET signal based on the assay's P-factor as per cAMP kit instructions. The data was normalized to the maximal activity of a reference antagonist and dose response curves were fitted to the percent activity of the test compounds using a sigmoidal dose response model (Genedata Screener).

Sequence of human GPR17 short isoform (Q13304 29-367): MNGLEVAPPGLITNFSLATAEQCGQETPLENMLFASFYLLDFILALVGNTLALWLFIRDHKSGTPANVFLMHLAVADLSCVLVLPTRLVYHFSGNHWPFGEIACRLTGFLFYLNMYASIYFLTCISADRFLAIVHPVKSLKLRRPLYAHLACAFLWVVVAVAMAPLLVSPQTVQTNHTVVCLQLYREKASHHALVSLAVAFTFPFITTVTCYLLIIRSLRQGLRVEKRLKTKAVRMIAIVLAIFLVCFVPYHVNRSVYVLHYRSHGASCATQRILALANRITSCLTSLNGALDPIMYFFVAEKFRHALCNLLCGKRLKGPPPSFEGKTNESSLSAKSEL

IC50 [µM] | Compound
0.916 | O=S(=O)(Nc1ncc(OCC(F)F)c(Cl)n1)c1c[nH]c2cc(Cl)ccc12 [Example 76, 6-chloro-N-[4-chloro-5-(2,2-difluoroethoxy)pyrimidin-2-yl]-1H-indole-3-sulfonamide]
0.008 | COc1nc(NS(=O)(=O)c2c[nH]c3c(SC(F)F)c(Cl)ccc23)ncc1CC(F)F [Example 199, 6-chloro-N-[5-(2,2-difluoroethyl)-4-methoxy-pyrimidin-2-yl]-7-(difluoromethylsulfanyl)-1H-indole-3-sulfonamide]
0.043 | COc1nc(NS(=O)(=O)c2c[nH]c3nc(Br)ccc23)nc(OC)c1Br [Example 30, 6-bromo-n-(5-bromo-4,6-dimethoxy-pyrimidin-2-yl)-1h-pyrrolo[2,3-b]pyridine-3-sulfonamide]
0.054 | COc1nc(NS(=O)(=O)c2c[nH]c3cc(C(F)F)ccc23)ncc1CC(F)F [Example 195, N-[5-(2,2-difluoroethyl)-4-methoxy-pyrimidin-2-yl]-6-(difluoromethyl)-1H-indole-3-sulfonamide]
0.011 | COc1nc(NS(=O)(=O)c2c[nH]c3nc(Br)ccc23)nc(OC)c1C [Example 160, 6-bromo-N-(4,6-dimethoxy-5-methyl-pyrimidin-2-yl)-1H-pyrrolo[2,3-b]pyridine-3-sulfonamide]
0.029 | COc1nc(NS(=O)(=O)c2c[nH]c3c(Br)c(Cl)ccc23)ncc1CC(F)F [Example 142, 7-bromo-6-chloro-N-[5-(2,2-difluoroethyl)-4-methoxy-pyrimidin-2-yl]-1H-indole-3-sulfonamide]
0.012 | COc1nc(NS(=O)(=O)c2c[nH]c3cc(Cl)ccc23)nc(OC)c1CCC(F)F [Example 62, 6-chloro-N-[5-(3,3-difluoropropyl)-4,6-dimethoxy-pyrimidin-2-yl]-1H-indole-3-sulfonamide]
0.116 | COc1nc(NS(=O)(=O)c2c[nH]c3nc(C)ccc23)nc(OC)c1OCCF [Example 131, N-[5-(2-fluoroethoxy)-4,6-dimethoxy-pyrimidin-2-yl]-6-methyl-1H-pyrrolo[2,3-b]pyridine-3-sulfonamide]
0.209 | COc1nc(NS(=O)(=O)c2c[nH]c3cc(OC(F)F)ccc23)ncc1CC(F)F [Example 104, N-[5-(2,2-difluoroethyl)-4-methoxy-pyrimidin-2-yl]-6-(difluoromethoxy)-1H-indole-3-sulfonamide]
0.028 | COc1nc(NS(=O)(=O)c2c[nH]c3c(OC(F)F)c(Cl)ccc23)ncc1CC(F)F [Example 188, 6-chloro-N-[5-(2,2-difluoroethyl)-4-methoxy-pyrimidin-2-yl]-7-(difluoromethoxy)-1H-indole-3-sulfonamide]
0.083 | COc1nc(NS(=O)(=O)c2c[nH]c3cc(Cl)ccc23)nc(OC(F)F)c1Br [Example 18, N-[5-bromo-4-(difluoromethoxy)-6-methoxy-pyrimidin-2-yl]-6-chloro-1H-indole-3-sulfonamide]
0.04 | COc1nc(NS(=O)(=O)c2c[nH]c3cc(Cl)ccc23)ncc1COC(F)F [Example 262, 6-chloro-N-[5-(difluoromethoxymethyl)-4-methoxy-pyrimidin-2-yl]-1H-indole-3-sulfonamide]
20.8 | COc1nc(NS(=O)(=O)c2c[nH]c3cc(Cl)ccc23)nc(C2CCOCC2)c1Br [Example 138, N-(5-bromo-4-methoxy-6-tetrahydropyran-4-yl-pyrimidin-2-yl)-6-chloro-1H-indole-3-sulfonamide]
0.05 | COc1nc(NS(=O)(=O)c2csc3nc(Br)ccc23)nc(OC)c1C [Example 144, 6-bromo-N-(4,6-dimethoxy-5-methyl-pyrimidin-2-yl)thieno[2,3-b]pyridine-3-sulfonamide]
0.259 | COc1nc(NS(=O)(=O)c2csc3nc(C(F)F)ccc23)nc(OC)c1CC(F)F [Example 167, N-[5-(2,2-difluoroethyl)-4,6-dimethoxy-pyrimidin-2-yl]-6-(difluoromethyl)thieno[2,3-b]pyridine-3-sulfonamide]
0.036 | COc1nc(NS(=O)(=O)c2c[nH]c3nc(Br)ccc23)nc(OC)c1OCCF [Example 109, 6-bromo-N-[5-(2-fluoroethoxy)-4,6-dimethoxy-pyrimidin-2-yl]-1H-pyrrolo[2,3-b]pyridine-3-sulfonamide]

IC50 [µM] | Compound
0.106 | COc1nc(NS(=O)(=O)c2c[nH]c3cc(C(F)(F)F)ccc23)ncc1CC(F)F [Example 190, N-[5-(2,2-difluoroethyl)-4-methoxy-pyrimidin-2-yl]-6-(trifluoromethyl)-1H-indole-3-sulfonamide]
0.013 | COc1nc(NS(=O)(=O)c2c[nH]c3nc(Br)ccc23)nc(OC)c1CC(F)F [Example 111, 6-bromo-N-[5-(2,2-difluoroethyl)-4,6-dimethoxy-pyrimidin-2-yl]-1H-pyrrolo[2,3-b]pyridine-3-sulfonamide]
0.165 | COc1nc(NS(=O)(=O)c2csc3cc(Br)ccc23)ncc1OC(F)F [Example 268, 6-bromo-N-[5-(difluoromethoxy)-4-methoxy-pyrimidin-2-yl]benzothiophene-3-Sulfonamide]
0.653 | COc1nc(NS(=O)(=O)c2c[nH]c3cc(Cl)ccc23)ncc1C1CC1 [Example 28, 6-chloro-n-(5-cyclopropyl-4-methoxy-pyrimidin-2-yl)-1h-indole-3-sulfonamide]
0.042 | COc1nc(NS(=O)(=O)c2c[nH]c3c(F)c(C(F)F)ccc23)ncc1OCCF [Example 247, 6-(difluoromethyl)-7-fluoro-N-[5-(2-fluoroethoxy)-4-methoxy-pyrimidin-2-yl]-1H-indole-3-sulfonamide]
0.103 | COc1nc(NS(=O)(=O)c2c[nH]c3c(OC4CC4)c(Cl)ccc23)ncc1OCCF [Example 5, 6-chloro-7-(cyclopropoxy)-N-[5-(2-fluoroethoxy)-4-methoxy-pyrimidin-2-yl]-1H-indole-3-sulfonamide]
0.011 | COc1nc(NS(=O)(=O)c2c[nH]c3cc(Cl)ccc23)nc(OC)c1OCCF [Example 53, 6-chloro-N-[5-(2-fluoroethoxy)-4,6-dimethoxy-pyrimidin-2-yl]-1H-indole-3-sulfonamide]
0.039 | COc1nc(NS(=O)(=O)c2c[nH]c3cc(Cl)ccc23)nc(OC)c1CCC(F)(F)F [Example 64, 6-chloro-N-[4,6-dimethoxy-5-(3,3,3-trifluoropropyl)pyrimidin-2-yl]-1H-indole-3-sulfonamide]
0.082 | COc1nc(NS(=O)(=O)c2c[nH]c3c(F)c(Cl)ccc23)ncc1OC(F)F [Example 126, 6-chloro-N-[5-(difluoromethoxy)-4-methoxy-pyrimidin-2-yl]-7-fluoro-1H-indole-3-sulfonamide]
0.021 | COc1nc(NS(=O)(=O)c2c[nH]c3nc(Br)ccc23)ncc1OC(F)(F)CF [Example 231, 6-bromo-N-[4-methoxy-5-(1,1,2-trifluoroethoxy)pyrimidin-2-yl]-1H-pyrrolo[2,3-b]pyridine-3-sulfonamide]
0.028 | COc1nc(NS(=O)(=O)c2c[nH]c3nc(Br)ccc23)nc(OC)c1OCC(F)F [Example 202, 6-bromo-N-[5-(2,2-difluoroethoxy)-4,6-dimethoxy-pyrimidin-2-yl]-1H-pyrrolo[2,3-b]pyridine-3-sulfonamide]
0.016 | COc1nc(NS(=O)(=O)c2c[nH]c3nc(Br)ccc23)nc(OC)c1CCC(F)F [Example 112, 6-bromo-N-[5-(3,3-difluoropropyl)-4,6-dimethoxy-pyrimidin-2-yl]-1H-pyrrolo[2,3-b]pyridine-3-sulfonamide]
0.072 | COc1nc(NS(=O)(=O)c2csc3nc(Br)ccc23)ncc1CCC(F)F [Example 270, 6-bromo-N-[5-(3,3-difluoropropyl)-4-methoxy-pyrimidin-2-yl]thieno[2,3-b]pyridine-3-sulfonamide]
0.022 | COc1nc(NS(=O)(=O)c2c[nH]c3c(F)c(C(F)F)ccc23)nc(OC)c1CC(F)F [Example 251, N-[5-(2,2-difluoroethyl)-4,6-dimethoxy-pyrimidin-2-yl]-6-(difluoromethyl)-7-fluoro-1H-indole-3-sulfonamide]
0.124 | COc1nc(NS(=O)(=O)c2c[nH]c3cc(Cl)ccc23)nc(F)c1Br [Example 73, N-(5-bromo-4-fluoro-6-methoxy-pyrimidin-2-yl)-6-chloro-1H-indole-3-sulfonamide]
0.092 | COc1nc(NS(=O)(=O)c2csc3cc(Cl)ccc23)ncc1CCC#N [Example 156, 6-chloro-N-[5-(2-cyanoethyl)-4-methoxy-pyrimidin-2-yl]benzothiophene-3-sulfonamide]
